Counter-ions that a name gives are not always drawn.
Columns and labels:
IL-6 = assay: THP-1 AlphaLISA IL-6 cytokine assay; assay type: cell-based; conditions: Homo sapiens
Description: (§1) Biological Example 1—THP-1 AlphaLISA IL-1β and IL-6 Cytokine Assay Measuring Inhibitory Effects on IL-1, and IL-6 Cytokine Output from THP-1s The cytokine inhibition profiles of compounds of formula (I) were determined in a differentiated THP-1 cell assay. All assays were performed in RPMI-1640 growth medium (Gibco), supplemented with 10% fetal bovine serum (FBS; Gibco), 1% penicillin-streptomycin and 1% sodium pyruvate unless specified otherwise. The IL-1β and IL-6 cytokine inhibition assays were each run in a background of differentiated THP-1 cells as described below. All reagents described were from Sigma-Aldrich unless specified otherwise. Compounds were prepared as 10 mM DMSO stocks. THP-1 cells were expanded as a suspension up to 80% confluence in appropriate growth medium. Cells were harvested, suspended, and treated with an appropriate concentration of phorbol 12-myristate 13-acetate (PMA) over a 72 hr period (37° C./5% CO2). Following 72 hrs of THP-1 cell incubation, cellular medium was removed and replaced with fresh growth media containing 1% of FBS. Working concentrations of compounds were prepared separately in 10% FBS treated growth medium and pre-incubated with the cells for 30 minutes (37° C./5% CO2). Following the 30 minute compound pre-incubation, THP-1s were treated with an appropriate concentration of LPS and the THP-1s were subsequently incubated for a 24 hr period (37° C./5% CO2). An appropriate final concentration of Nigericin was then dispensed into the THP-1 plates and incubated for 1 hour (37° C./5% CO2) before THP-1 supernatants were harvested and collected in separate polypropylene 96-well holding plates. Reagents from each of the IL-1β and IL-6 commercial kits (Perkin Elmer) were prepared and run according to the manufacturer's instructions. Subsequently, fluorescence signal detection in a microplate reader was measured (EnVision® Multilabel Reader, Perkin Elmer). Percentage inhibition was calculated per cytokine by normalizing the sample data to the high and low controls used within each plate (+/−LPS respectively). Percentage inhibition was then plotted against compound concentration and the 50% inhibitory concentration (IC50) was determined from the resultant concentration-response curve.

IL-1β = assay: THP-1 AlphaLISA IL-1β cytokine assay; assay type: cell-based; conditions: for IC50: Homo sapiens, differentiated THP-1 cells
Description: as §1

hepatocytes [1] = assay: Hepatocyte stability assay, mouse; assay type: in vitro ADME; conditions: 10 μM compound
Source text: (§2) Biological Example 3—Hepatocyte Stability Assay
(§3) Defrosted cryo-preserved hepatocytes (viability >70%) are used to determine the metabolic stability of a compound via calculation of intrinsic clearance (CIint; a measure of the removal of a compound from the liver in the absence of blood flow and cell binding). Clearance data are particularly important for […] as they can be used in combination with in vivo data to predict the half-life and oral bioavailability of a drug.
(§4) The metabolic stability in hepatocytes assay involves a time-dependent reaction using both positive and negative controls. The cells must be pre-incubated at 37° C. then spiked with test compound (and positive control); samples taken at pre-determined time intervals are analysed to monitor the change in concentration of the initial drug compound over 60 minutes. A buffer incubation reaction (with no hepatocytes present) acts as a negative control and two cocktail solutions, containing compounds with known high and low clearance values (verapamil/7-hydroxycoumarin and propranolol/diltiazem), act as positive controls. • 1. The assay is run with a cell concentration of 0.5×10^6 cells/mL in Leibovitz buffer. • 2. All compounds and controls are run in duplicate. • 3. Compound concentration is 10 μM. • 4. All compounds and controls are incubated with both cells and buffer to show turnover is due to hepatic metabolism. • 5. All wells on the incubation plate will have 326.7 μL of either cells or buffer added. • 6. Prior to assay, cell and buffer-only incubation plates are preincubated for 10 mins at 37° C. • 7. The assay is initiated by adding compounds, 3.3 μL of 1 mM in 10% DMSO-90% Buffer; final DMSO concentration is 0.1%. • 8. Samples are taken at regular timepoints (0, 5, 10, 20, 40, 60 min) until 60 mins. • 9. Sample volume is 40 μL and it is added to 160 μL of crash solvent (acetonitrile with internal standard) and stored on ice. • 10. At the end of the assay, the crash plates are centrifuged at 3500 rpm for 20 mins at 4° C. • 11. 80 μL of clear supernatant is removed and mixed with 80 μL of deionised water before being analysed by LC-MS/MS.
(§5) Raw LC-MS/MS data are exported to, and analysed in, Microsoft Excel for determination of intrinsic clearance. The percentage remaining of a compound is monitored using the peak area of the initial concentration as 100%. Intrinsic clearance and half-life values are calculated using a graph of the natural log of percentage remaining versus the time of reaction in minutes. Half-life (min) and intrinsic clearance (CIint in μL min^−1 10^−6 cells) values are calculated using the gradient of the graph (the elimination rate constant, k) and Equations 1 and 2.

[2] = Hepatocyte stability assay, mouse; assay type: in vitro ADME; conditions: mouse, cryopreserved hepatocytes, 10 μM compound, Table 5, read-out: T½
Source text: as §2, §3, §4, §5

hepatocytes [3] = assay: Hepatocyte stability assay, human; assay type: in vitro ADME; conditions: 10 μM compound
Source text: as §2, §3, §4, §5

[4] = Hepatocyte stability assay, human; assay type: in vitro ADME; conditions: cryopreserved hepatocytes, 10 μM compound, Table 5, read-out: T½
Source text: as §2, §3, §4, §5

NRF2 = NRF2 activation assay (DiscoverX PathHunter NRF2 translocation kit, U2OS cells); assay type: cell-based
Description: Biological Example 2—NRF2 Activation Assay Measuring Compound Activation Effects on the Anti-Inflammatory Transcription Factor NRF2 in DiscoverX PathHunter NRF2 Translocation Kit Potency and efficacy of compounds of formula (I) against the target of interest to activate NRF2 (nuclear factor erythroid 2-related factor 2) were determined using the PathHunter NRF2 translocation kit (DiscoverX). The NRF2 translocation assay was run using an engineered recombinant cell line, utilising enzyme fragment complementation to determine activation of the Keap1-NRF2 protein complex and subsequent translocation of NRF2 into the nucleus. Enzyme activity was quantified using a chemiluminescent substrate consumed following the formation of a functional enzyme upon PK-tagged NRF2 translocation into the nucleus. Additionally, a defined concentration of dimethyl fumarate was used as the ‘High’ control to normalise test compound activation responses to. U2OS PathHunter eXpress cells were thawed from frozen prior to plating. Following plating, U2OS cells were incubated for 24 hrs (37° C./5% CO2) in commercial kit provided cell medium. Following 24 hrs of U2OS incubation, cells were directly treated with an appropriate final concentration of compound. Following compound treatment, the U2OS plates were incubated for a further 6 hours (37° C./5% CO2) before detection reagent from the PathHunter NRF2 commercial kit was prepared and added to test plates according to the manufacturer's instructions. Subsequently, the luminescence signal detection in a microplate reader was measured (PHERAstar®, BMG Labtech). Percentage activation was calculated by normalising the sample data to the high and low controls used within each plate (+/−DMF). Percentage activation/response was then plotted against compound concentration and the 50% activation concentration (EC50) was determined from the plotted concentration-response curve.

[5] = Table 2, compounds of formula (II)
[6] = THP-1, differentiated THP-1 cells, Table 2, compounds of formula (II)
[7] = +GSH, Table 4, compounds of formula (II)
[8] = −GSH, Table 4, compounds of formula (II)

Structure (SMILES) | IC50 (IL-1β; [5]) [µM] | IC50 (IL-6; [6]) [µM] | further results
O=C(O)/C=C/C(=O)OC1(c2ccc(Br)cn2)CCC1 [Intermediate 23, (E)-4-(1-(5-bromopyridin-2-yl)cyclobutoxy)-4-oxobut-2-enoic acid] | 6 to 30 | – | IC50 (IL-6; differentiated THP-1 cells, Table 2, compounds of formula (II)): 6 to 30 µM
O=C(O)/C=C/C(=O)OC1(c2ccccc2C(F)(F)F)CCC1 [Intermediate 11, (E)-4-oxo-4-(1-(2-(trifluoromethyl)phenyl)cyclobutoxy)but-2-enoic acid] | 50 to 100 | > 100 | –
O=C(O)COC(=O)/C=C/C(=O)OC1CC2(CCC2)C1 [Example 9, (E)-2-((4-oxo-4-(spiro[3.3]heptan-2-yloxy)but-2-enoyl)oxy)acetic acid] | – | – | IC50 (IL-1β; LPS then Nigericin, Table 1): 2.5 to 6.1 µM; CIint (hepatocytes [1]; Table 5): + (+ means >277); half-life at 10 μM [2]: < 5 min; CIint (hepatocytes [3]; Table 5): ++++ (++++ means <50); half-life at 10 μM [4]: 30 to 100 min
O=C(O)/C=C/C(=O)OC1(c2ccc(Cl)cc2)CCC1 [Intermediate 13, (E)-4-(1-(4-chlorophenyl)cyclobutoxy)-4-oxobut-2-enoic acid] | 6 to 30 | 6 to 30 | –
O=C(O)/C=C/C(=O)OC1(c2ccc(C(F)F)cc2)CCC1 [Intermediate 31, (E)-4-(1-(4-(difluoromethyl)phenyl)cyclobutoxy)-4-oxobut-2-enoic acid] | 6 to 30 | 6 to 30 | –
CCCCCCCCOC(=O)/C=C/C(=O)O [Intermediate 5, Octyl Fumarate] | – | – | EC50 (NRF2; [7]): < 23 µM; NRF2 activation Emax (NRF2; [7]): ++++ (++++ means >150%); EC50 (NRF2; [8]): < 23 µM; NRF2 activation Emax (NRF2; [8]): ++++ (++++ means >150%)
COc1cc(OC)cc(C2(OC(=O)/C=C/C(=O)O)CCC2)c1 [Intermediate 40, (E)-4-(1-(3,5-dimethoxyphenyl)cyclobutoxy)-4-oxobut-2-enoic acid] | > 100 | 30 to 50 | –
O=C(O)/C=C/C(=O)OC1(c2cc(F)c(F)c(F)c2)CCC1 [Intermediate 28, (E)-4-oxo-4-(1-(3,4,5-trifluorophenyl)cyclobutoxy)but-2-enoic acid] | 6 to 30 | 6 to 30 | –
O=C(O)/C=C/C(=O)OC(c1ccc(C(F)(F)F)cc1)C(F)(F)F (single isomer, unassigned) [Intermediate 45, (E)-4-oxo-4-(2,2,2-trifluoro-1-(4-(trifluoromethyl)phenyl)ethoxy)but-2-enoic acid] | – | – | CIint (hepatocytes [1]; Table 6): + (+ means >110-277); T½ (hepatocytes [1]; Table 6): 4 min; CIint (hepatocytes [3]; Table 6): ++ (++ means >30-110); T½ (hepatocytes [3]; Table 6): ++ (++ means 5-29)
O=C(O)/C=C/C(=O)OC1(c2ccc(C(F)(F)F)cn2)CCC1 [Intermediate 9, (E)-4-oxo-4-(1-(5-(trifluoromethyl)pyridin-2-yl)cyclobutoxy)but-2-enoic acid] | 6 to 30 | 6 to 30 | –
O=C(O)/C=C/C(=O)OC1(c2ccc(C(F)(F)F)nc2)CCC1 [Intermediate 15, (E)-4-oxo-4-(1-(6-(trifluoromethyl)pyridin-3-yl)cyclobutoxy)but-2-enoic acid] | 30 to 50 | > 100 | –
N#C[C@H]1C[C@](OC(=O)/C=C/C(=O)O)(c2ccc(C(F)(F)F)cc2)C1 (single isomer, unassigned) [Intermediate 34, (E)-4-((cis)-3-cyano-1-(4-(trifluoromethyl)phenyl)cyclobutoxy)-4-oxobut-2-enoic acid] | 6 to 30 | 30 to 50 | –
N#Cc1ccc(C2(OC(=O)/C=C/C(=O)O)CCC2)cc1 [Intermediate 27, (E)-4-(1-(4-cyanophenyl)cyclobutoxy)-4-oxobut-2-enoic acid] | 50 to 100 | 6 to 30 | –
O=C(O)/C=C/C(=O)OC1(c2ncc(C(F)(F)F)cn2)CCC1 [Intermediate 39, (E)-4-oxo-4-(1-(5-(trifluoromethyl)pyrimidin-2-yl)cyclobutoxy)but-2-enoic acid] | 30 to 50 | 30 to 50 | –
O=C(O)/C=C/C(=O)OC1(c2ccc(Cl)cn2)CCC1 [Intermediate 24, (E)-4-(1-(5-chloropyridin-2-yl)cyclobutoxy)-4-oxobut-2-enoic acid] | 30 to 50 | 6 to 30 | –
CC1(OC(=O)/C=C/C(=O)O)CCC1 [Intermediate 4, (E)-4-(1-methylcyclobutoxy)-4-oxobut-2-enoic acid] | > 100 | – | EC50 (NRF2; [7]): 23 to 48.4 µM; NRF2 activation Emax (NRF2; [7]): + (+ means >50-<87%); EC50 (NRF2; [8]): < 23 µM; NRF2 activation Emax (NRF2; [8]): +++ (+++ means >114-150%); activity in the THP-1 cytokine assays (in words) (IL-1β; THP-1 IL-1β and IL-6 assays): not active
COC(=O)/C=C/C(=O)OC [dimethyl fumarate, Dimethyl fumarate, reference compound] | – | – | EC50 (NRF2; +GSH, Table 3): > 100 µM; NRF2 activation Emax (NRF2; +GSH, normalised to dimethyl fumarate high control, Table 3): 17.1%; EC50 (NRF2; −GSH, Table 3): 6.1 µM; NRF2 activation Emax (NRF2; −GSH, normalised to dimethyl fumarate high control, Table 3): 100%; IC50 (IL-6; THP-1, differentiated THP-1 cells, LPS then Nigericin, Table 1): 9.3 µM
COC(=O)/C=C/C(=O)O [monomethyl fumarate, Monomethyl fumarate, reference compound] | > 100 | > 100 | EC50 (NRF2; [7]): 48.4 µM; NRF2 activation Emax (NRF2; [7]): 87%; EC50 (NRF2; [8]): 23 µM; NRF2 activation Emax (NRF2; [8]): 114%
O=C(O)/C=C/C(=O)OC1(c2ccc(C(F)(F)F)cc2)CCOCC1 [Intermediate 35, (E)-4-oxo-4-((4-(4-(trifluoromethyl)phenyl)tetrahydro-2H-pyran-4-yl)oxy)but-2-enoic acid] | 50 to 100 | > 100 | –

From patent publication US20240010606A1, “FUMARATE DERIVATIVES AND THEIR MEDICAL USE” (Sitryx Therapeutics Limited, priority 2020, published 2024)
